Measurements as given in patent US20220175766A1, “COMPOSITIONS AND METHODS OF TREATMENT” (GB004, Inc., priority 2019, published 2022).

Assay: Phase 1a multiple ascending dose study (oral solution): safety and tolerability
Type: in vivo, human
Experimental: The primary objective of the study was to assess the safety and tolerability of ascending doses of Compound 1 after multiple oral doses administration. The safety endpoints included TEAE incidence and severity, clinically significant changes in vital signs, ECG parameters, clinical laboratory tests and physical examination.
Safety and tolerability were assessed by review of vital signs, laboratory results (serum chemistry, hematology and urinalysis), ECG, physical examination findings, AEs, and PK assessment following the Day 1 and Day 7 doses. […] One event of vomiting led to early trial discontinuation in the 240 mg dose group.

## CC(C)(C)OC(=O)N1CCN(Cc2ccn(Cc3ccc(Cl)cc3)c(=O)c2O)CC1 [Compound 1, tert-butyl 4-((1-(4-chlorobenzyl)-3-hydroxy-2-oxo-1,2-dihydropyridin-4-yl)methyl)piperazine-1-carboxylate]
240 mg dose once daily
  Tolerability: less well tolerated
Doses up to 120 mg once daily for 8 days
  Tolerability: generally well tolerated
